In patent publication US20200369728A1, “PEPTIDOMIMETIC MACROCYCLES AND USES THEREOF” (Aileron Therapeutics, Inc., priority 2015, published 2020):
Bridge positions count the residues as written; N and C are the ends. Square brackets hold non-standard residues; d marks the D form. Peptide text beside a SMILES is read from it. R8 = C=CCCCCCC[C@@](C)(N)C(=O)O; S5 = C=CCCC[C@](C)(N)C(=O)O; Aib = CC(C)(N)C(=O)O

Columns and labels:
SJSA-1 cells = assay: Cell lysis by peptidomimetic macrocycles (LDH release); format: cell-based; conditions: SJSA-1, 1 h
Procedure, shortened: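 SJSA-1 cells plated the day before, switched to RPMI with 1% FBS, then exposed 1 h at 37 °C to macrocycle at final 50 μM to 6.25 μM in 0.5% DMSO. LDH released into the supernatant was measured by kit. Controls: 0.5% DMSO (non-lytic), 10 μM melittin and 1% Triton X-100 (lytic).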

RKO = assay: Cell viability assay (MTT), RKO; conditions: read-out: RKO EC50 (72 h)
Caspase 3 = Caspase 3 detection assay in SJSA1 cells; format: cell-based; conditions: SJSA1, 48 h, Caspase 3 activation over DMSO-treated cells

| SMILES | 6.25 μM % Lysed cells (1 h LDH) (SJSA-1 cells) [%] | 25 μM % Lysed cells (1 h LDH) (SJSA-1 cells) [%] | 50 μM % Lysed cells (1 h LDH) (SJSA-1 cells) [%] | EC50 (RKO) [µM] | caspase 0.3 μM (Caspase 3) | caspase 3 μM (Caspase 3) | caspase 10 μM (Caspase 3) | caspase 30 μM (Caspase 3) | caspase 1 μM (Caspase 3; 1 μM) |
| --- | --- | --- | --- | --- | --- | --- | --- | --- | --- |
| CC[C@H](C)[C@H](NC(=O)[C@H](C)NC(=O)[C@H](C)NC(=O)[C@]1(C)CCCC=CCCCCCC[C@@](C)(NC(=O)[C@H](Cc2ccccc2)NC(=O)[C@@H](NC(=O)[C@H](CC(C)C)NC(C)=O)[C@@H](C)O)C(=O)N[C@@H](C)C(=O)N[C@@H](Cc2ccc(O)cc2)C(=O)N[C@@H](Cc2c[nH]c3ccccc23)C(=O)N[C@@H](C)C(=O)N[C@@H](CCC(N)=O)C(=O)N[C@@H](CC(C)C)C(=O)N1)C(=O)N[C@H](CC(C)C)C(N)=O (single isomer, unassigned) [compound 81] | 1 | 0 | 0 | 5 to 15 | 1 | 1 | 6 | 21 | – |
| CC(=O)N[C@@H](CC(C)C)C(=O)N[C@H](C(=O)N[C@@H](Cc1ccccc1)C(=O)N[C@]1(C)CCCCCCC=CCCC[C@@](C)(C(=O)N[C@@H](C)C(=O)N[C@H](C(=O)NCC(N)=O)C(C)C)NC(=O)[C@H](CC(C)C)NC(=O)[C@H](CCC(N)=O)NC(=O)[C@H](C)NC(=O)[C@H](Cc2c[nH]c3ccccc23)NC(=O)[C@H](Cc2ccc(O)cc2)NC(=O)[C@H](C)NC1=O)[C@@H](C)O (single isomer, unassigned) [compound 109] | – | – | – | < 5 | – | 4 | 16 | 25 | – |
| CC(=O)N[C@@H](CC(C)C)C(=O)N[C@H](C(=O)N[C@@H](Cc1ccccc1)C(=O)N[C@]1(C)CCCCCCC=CCCC[C@@](C)(C(=O)N[C@@H](CO)C(=O)N[C@@H](CC(C)C)C(=O)N[C@@H](C)C(N)=O)NC(=O)[C@H](CC(C)C)NC(=O)[C@H](CCC(N)=O)NC(=O)[C@H](C)NC(=O)[C@H](Cc2c[nH]c3ccccc23)NC(=O)[C@H](Cc2ccc(O)cc2)NC(=O)[C@H](C)NC1=O)[C@@H](C)O (single isomer, unassigned) [compound 118] | 4 | 2 | 4 | < 5 | 1 | 2 | 18 | 27 | – |
| CC(=O)N[C@@H](CC(C)C)C(=O)N[C@H](C(=O)N[C@@H](Cc1ccccc1)C(=O)N[C@]1(C)CCCCCCC=CCCC[C@@](C)(C(=O)N[C@@H](CO)C(=O)N[C@@H](Cc2c[nH]c3ccccc23)C(=O)N[C@@H](C)C(N)=O)NC(=O)[C@H](CC(C)C)NC(=O)[C@H](CCC(N)=O)NC(=O)[C@H](C)NC(=O)[C@H](Cc2c[nH]c3ccccc23)NC(=O)[C@H](Cc2ccc(O)cc2)NC(=O)[C@H](C)NC1=O)[C@@H](C)O (single isomer, unassigned) [compound 120] | 0 | 0 | 6 | < 5 | 2 | 11 | 20 | 30 | – |
| CC(=O)N[C@@H](CC(C)C)C(=O)N[C@H](C(=O)N[C@@H](Cc1ccccc1)C(=O)N[C@]1(C)CCCCCCC=CCCC[C@@](C)(C(=O)N[C@@H](CO)C(=O)N[C@@H](C)C(=O)N[C@@H](C)C(N)=O)NC(=O)[C@H](C2CCCC2)NC(=O)[C@H](CCC(N)=O)NC(=O)[C@H](C)NC(=O)[C@H](Cc2c[nH]c3ccccc23)NC(=O)[C@H](Cc2ccc(O)cc2)NC(=O)[C@H](CCC(=O)O)NC1=O)[C@@H](C)O (single isomer, unassigned) [compound 150] | −1 | 0 | 2 | 15 to 30 | – | – | – | – | – |
| CC(=O)N[C@@H](C)C(=O)N[C@@H](C)C(=O)N[C@@H](CC(C)C)C(=O)N[C@H](C(=O)N[C@@H](Cc1ccccc1)C(=O)N[C@]1(C)CCCCCCC=CCCC[C@@](C)(C(=O)N[C@@H](CO)C(=O)N[C@@H](C)C(=O)N[C@@H](C)C(=O)N[C@@H](C)C(=O)N[C@H](C)C(N)=O)NC(=O)[C@H](CC2CCC2)NC(=O)[C@H](CCC(N)=O)NC(=O)[C@H](C)NC(=O)[C@H](Cc2c[nH]c3ccccc23)NC(=O)[C@H](Cc2ccc(O)cc2)NC(=O)[C@H](CCC(=O)O)NC1=O)[C@@H](C)O (single isomer, unassigned) [compound 358] | – | – | – | 15 to 30 | 1 | 3 | 6 | 24 | 2 |
| CCCC[C@H](NC(=O)[C@H](C)NC(=O)[C@H](C)NC(=O)[C@]1(C)CCCC=CCCCCCC[C@@](C)(NC(=O)[C@H](Cc2ccccc2)NC(=O)[C@@H](NC(=O)[C@H](CC(C)C)NC(=O)CN(C)C)[C@@H](C)O)C(=O)N[C@@H](C)C(=O)N[C@@H](Cc2ccc(O)cc2)C(=O)N[C@@H](Cc2c[nH]c3ccccc23)C(=O)N[C@@H](C)C(=O)N[C@@H](CCC(N)=O)C(=O)N[C@@H](CC(C)C)C(=O)N1)C(=O)N[C@@H](C)C(N)=O (single isomer, unassigned) [compound 442] | – | – | – | < 5 | – | – | – | – | – |
| CSCC[C@H](NC(=O)[C@H](C)NC(=O)[C@H](CO)NC(=O)[C@]1(C)CCCC=CCCCCCC[C@@](C)(NC(=O)[C@H](Cc2ccccc2)NC(=O)[C@@H](NC(=O)[C@H](CC(C)C)NC(C)=O)[C@@H](C)O)C(=O)N[C@@H](C)C(=O)N[C@@H](Cc2ccc(O)cc2)C(=O)N[C@@H](Cc2c[nH]c3ccccc23)C(=O)N[C@@H](C)C(=O)N[C@@H](CCC(N)=O)C(=O)N[C@@H](CC(C)C)C(=O)N1)C(N)=O [compound 5] (Ac-LTF[R8]AYWAQL[S5]SAM-NH2; staple 4-11) | – | – | – | < 5 | – | – | – | – | – |
| CC(=O)N[C@@H](CC(C)C)C(=O)N[C@H](C(=O)N[C@@H](Cc1ccccc1)C(=O)N[C@]1(C)CCCCCCC=CCCC[C@@](C)(C(=O)N[C@@H](CO)C(=O)N[C@@H](C)C(=O)NC(C)(C)C(N)=O)NC(=O)[C@H](CC(C)C)NC(=O)[C@H](CCC(N)=O)NC(=O)[C@H](C)NC(=O)[C@H](Cc2c[nH]c3ccccc23)NC(=O)[C@H](Cc2ccc(O)cc2)NC(=O)[C@H](C)NC1=O)[C@@H](C)O [compound 10] (Ac-LTF[R8]AYWAQL[S5]SA[Aib]-NH2; staple 4-11) | – | – | – | 5 to 15 | 1 | 1 | 17 | 32 | – |
| CC(=O)N[C@@H](CC(C)C)C(=O)N[C@H](C(=O)N[C@@H](Cc1ccccc1)C(=O)N[C@]1(C)CCCCCCC=CCCC[C@@](C)(C(=O)N[C@@H](C)C(=O)N[C@@H](Cc2c[nH]cn2)C(=O)N[C@@H](Cc2ccccc2)C(=O)N[C@@H](C)C(N)=O)NC(=O)[C@H](CC(C)C)NC(=O)[C@H](CCC(N)=O)NC(=O)[C@H](C)NC(=O)[C@H](Cc2c[nH]c3ccccc23)NC(=O)[C@H](Cc2ccc(O)cc2)NC(=O)[C@H](C)NC1=O)[C@@H](C)O [compound 50] (Ac-LTF[R8]AYWAQL[S5]AHFA-NH2; staple 4-11) | – | – | – | < 5 | – | 8 | 29 | 29 | – |
| CCCC[C@H](NC(=O)[C@H](C)NC(=O)[C@H](C)NC(=O)[C@]1(C)CCC/C=C/CCCCCC[C@@](C)(NC(=O)[C@H](Cc2ccccc2)NC(=O)[C@@H](NC(=O)[C@H](CC(C)C)NC(C)=O)[C@@H](C)O)C(=O)N[C@@H](C)C(=O)N[C@@H](Cc2ccc(O)cc2)C(=O)N[C@@](C)(Cc2c[nH]c3ccccc23)C(=O)N[C@@H](C)C(=O)N[C@@H](CCC(N)=O)C(=O)N[C@@H](CC(C)C)C(=O)N1)C(=O)N[C@@H](C)C(N)=O [compound 388] | – | – | – | 15 to 30 | – | – | – | – | – |
| CC(C)C[C@H](NC(=O)CN(C)C)C(=O)N[C@H](C(=O)N[C@@H](Cc1ccccc1)C(=O)N[C@]1(C)CCCCCCC=CCCC[C@@](C)(C(=O)N[C@@H](CO)C(=O)N[C@@H](C)C(=O)N[C@@H](C)C(N)=O)NC(=O)[C@H](CC2CCC2)NC(=O)[C@H](CCC(N)=O)NC(=O)[C@H](C)NC(=O)[C@H](Cc2c[nH]c3ccccc23)NC(=O)[C@H](Cc2ccc(O)cc2)NC(=O)[C@H](CCC(=O)O)NC1=O)[C@@H](C)O [compound 435] | – | – | – | 15 to 30 | – | – | – | – | – |
| CC(C)C[C@H](NC(=O)CN(C)C)C(=O)N[C@H](C(=O)N[C@@H](Cc1ccccc1)C(=O)N[C@]1(C)CCCCCC/C=C/CCC[C@@](C)(C(=O)N[C@@H](C)C(=O)N[C@@H](C)C(=O)N[C@@H](C)C(=O)N[C@@H](C)C(=O)N[C@@H](C)C(=O)N[C@H](C)C(N)=O)NC(=O)[C@H](CC(C)C)NC(=O)[C@H](CCC(N)=O)NC(=O)[C@H](C)NC(=O)[C@H](Cc2c[nH]c3ccccc23)NC(=O)[C@H](Cc2ccc(O)cc2)NC(=O)[C@H](C)NC1=O)[C@@H](C)O [compound 437] | – | – | – | < 5 | – | – | – | – | – |
| CCCC[C@H](NC(=O)[C@H](C)NC(=O)[C@H](C)NC(=O)[C@]1(C)CCCCCCCCCCC[C@@](C)(NC(=O)[C@H](Cc2ccccc2)NC(=O)[C@@H](NC(=O)[C@H](CC(C)C)NC(C)=O)[C@@H](C)O)C(=O)N[C@@H](C)C(=O)N[C@@H](Cc2ccc(O)cc2)C(=O)N[C@@H](Cc2c[nH]c3ccccc23)C(=O)N[C@@H](C)C(=O)N[C@@H](CCC(N)=O)C(=O)N[C@@H](CC(C)C)C(=O)N1)C(=O)N[C@@H](C)C(N)=O [compound 444] | – | – | – | < 5 | – | – | – | – | – |
| CC(=O)N[C@@H](CC(C)C)C(=O)N[C@H](C(=O)N[C@@H](Cc1ccccc1)C(=O)N[C@]1(C)CCCCCCCCCCC[C@@](C)(C(=O)N[C@@H](C)C(=O)N[C@@H](C)C(=O)N[C@@H](C)C(=O)N[C@@H](C)C(=O)N[C@@H](C)C(=O)N[C@H](C)C(N)=O)NC(=O)[C@H](CC(C)C)NC(=O)[C@H](CCC(N)=O)NC(=O)[C@H](C)NC(=O)[C@H](Cc2c[nH]c3ccccc23)NC(=O)[C@H](Cc2ccc(O)cc2)NC(=O)[C@H](CCC(=O)O)NC1=O)[C@@H](C)O [compound 445] | – | – | – | 5 to 15 | – | – | – | – | – |
